Results as given in patent US9133242B2, “Peptide for use as a medicament, in particular for the treatment of cancer” (priority 2010, dated 2015).
“Also recorded” adds a separate entry of the source. Where no end group is shown, it is not given here.

Legend:
Format in all cases: cell-based
A 549 (Human lung tumor) = assay: MTT cell viability, A549 lung cancer line; settings: variants tested on the A549 line; for evaluation of the activity (in words): compared with peptide SEQ. 1
Method: Approximately 10 000 cells were seeded, in a volume of 0.2 mL per well, into 96-well microplates for 24 hours before treatment with the peptide of SEQ. 1. The cells were incubated for 48 to 72 hours at 37° C. in a CO2 incubator in the presence or absence of the peptide of SEQ. 1 at various concentrations.
Following this incubation, MTT reagent or 3-(4,5-dimethyl[…])-2,5-diphenyltetrazolium bromide (0.5 mg/ml in a volume of 0.1 ml) was added to each well and incubated for 2 hours at 37° C.
The tetrazolium ring contained by the MTT is then reduced by the succinate dehydrogenase of the live cells, to give formazan. Next, the supernatant was removed and 0.1 ml of lysis buffer (isopropanol containing 10% of triton×100 and 10% of 1N HCl) was added in order to dissolve the bluish violet formazan precipitate formed. After a few minutes, the absorbance was determined at ambient temperature using a microplate reader at a test wavelength of 562 nm. Wells not comprising peptide of SEQ. 1 were used so as to verify the viability of control cells. IC 50 (concentration of peptide of SEQ. 1 causing 50% cytotoxicity on these cell lines) values for each cell variety were evaluated by means of the ratio of the absorbance of the treated cells to the absorbance of the control cells. […]

[1] = system: TX 1 cells (line derived from breast tumors which no longer respond to Taxol); assay: Growth inhibition of Taxol-resistant TX 1 cells; settings: after 24 H of culture
Method: (§1) The studies were carried out on two cell lines, TX 1 and TX 2, derived from breast tumors which no longer respond to Taxol. […] 1 and the peptide of SEQ. 7. […]

[2] = system: TX 2 cells (line derived from breast tumors which no longer respond to Taxol); assay: Growth inhibition of Taxol-resistant TX 2 cells; settings: after 24 H of culture
Method: as §1

[3] = system: FIBRO 1 and FIBRO 2 nontumorigenic fibroblast cells; assay: Immunofluorescent labeling of microtubule network, healthy fibroblasts; settings: human fibroblasts FIBRO 1 and FIBRO 2, 15 μM
Method: FIG. 4 represents photos of non-tumor cell lines, FIBRO 1 and FIBRO 2 (fibroblast cells), treated with the peptide of SEQ. 1 at 15 μM and not treated with this peptide (control);
The specific activity of the peptide of SEQ. Two varieties of nontumorigenic fibroblast cells: FIBRO 1 and FIBRO 2, were brought into contact with the peptide of SEQ. 1 in order to see whether the microtubule network of healthy cells was also disrupted by the peptide. […] 1 (no modification of polymerized tubulin density), at the very least at concentrations of peptide of SEQ. 1 used for the cancer cells (15 μM). This observation represents an important advance of the present invention.

For “INWKKIAKKVAGML-NH2 [SEQ. 7, INWKKIAKKVAGML-NH2]”, the “evaluation of the activity (in words)” value (A 549 (Human lung tumor)) was “absolutely equivalent to the peptide SEQ. 1; also recorded: Very good activity”, the growth inhibition [1] was “significant” and the growth inhibition [2] was “significant”.
For “INWLAIAAKVAGML [SEQ. 4, INWLAIAAKVAGML-NH2]”, the “evaluation of the activity (in words)” value (A 549 (Human lung tumor)) was “absolutely equivalent to the peptide SEQ. 1; also recorded: Very good activity”.
With “INWLAIAKKVAGML [SEQ. 3, INWLAIAKKVAGML-NH2]” the “evaluation of the activity (in words)” value (A 549 (Human lung tumor)) was “absolutely equivalent to the peptide SEQ. 1; also recorded: Very good activity”.
In the case of “INWLKIAKKVAG-NH2 [SEQ. 19, INWLKIAKKVAG-NH2]”, the “evaluation of the activity (in words)” value (A 549 (Human lung tumor)) is reported as “Medium activity”.
For “INWLKIAKKVAGM-NH2 [SEQ. 18, INWLKIAKKVAGM-NH2]”, the “evaluation of the activity (in words)” value (A 549 (Human lung tumor)) was “Medium activity”.
In the case of INWLKIAKKVAGML [SEQ. 2], the IC50 (A 549 (Human lung tumor)) is reported as roughly 15 µM and the “evaluation of the activity (in words)” value (A 549 (Human lung tumor)) is reported as “Medium activity”.
With “INWLKIAKKVAGML-NH2 [SEQ. 1, INWLKIAKKVAGML-NH2]” the “modification of polymerized tubulin density in healthy cells” value [3] was “do not respond at all”.
For “INWLKIAKKVKGML [SEQ. 9, INWLKIAKKVKGML-NH2]”, the “evaluation of the activity (in words)” value (A 549 (Human lung tumor)) was “absolutely equivalent to the peptide SEQ. 1; also recorded: Very good activity”.
